Data as given in patent US10064909B2, “Compositions and methods for chronic use of a weight-gaining compound” (priority 2015, dated 2018).
Entries after “also recorded” stand apart in the source; their conditions may differ.

Tests used:
Type in all cases: in vivo
[1] = test system: IGF-1; test: 91-day cat safety study: serum IGF-1; details: cats, 6 mg/kg, compared to placebo controls; sustained, peak at Day 30
Protocol: (§1) This controlled study included two treatment groups with 4 adult cats receiving placebo (Group 1) and 8 adult cats receiving capromorelin (Formulation #9, as described above) (Group 2) for 91 consecutive days. All cats were offered food daily for a 6-hour period following an 11-day acclimation phase. All cats were weighed on Days −11, −1, 1, 14, 30, 59, 75, and 91. On Days 1 through 91, animals were orally administered capromorelin once daily via syringe at dose levels of 0 or 6 mg/kg. At one hour post-dose, all cats were offered food for a 6-hour period. Variables of interest included weight gain/loss, food consumption, clinical pathology, and serum analysis of IGF-1 and GH.
On Days 1, 30, 59, and 91, blood samples were collected prior to daily dose administration and at 8 hours post-dose and processed to serum for analysis of IGF-1 and GH levels. […] Serum chemistry parameters measured included albumin (ALB), creatine kinase (CK), albumin/globulin ratio (A\G), globulin (GLOB), alkaline phosphatase (ALP), glucose (GLU), fructosamine, alanine aminotransferase (ALT), blood urea nitrogen (BUN), phosphorus (PHOS), calcium (Ca), potassium (K), chloride (Cl), sodium (Na), cholesterol (CHOL), total protein (TP), creatinine (CRE), total bilirubin (TBIL), BUN/creatinine ratio, and sodium/potassium ratio.

[2] = Safety of daily capromorelin in cats for 91 days at an oral dose of 6 mg/kg
Protocol: as §1
On Days 1, 30, 59, and 91, blood samples were collected prior to daily dose administration and at 8 hours post-dose and processed to serum for analysis of IGF-1 and GH levels. Hematology parameters included white blood count (WBC), hemoglobin (HgB), red blood count (RBC), platelet count (PLT), platelet morphology, hematocrit (HCT), mean corpuscular volume (MCV), mean corpuscular hemoglobin (MCH), WBC differential, RBC and WBC morphology, mean corpuscular hemoglobin concentration (MCHC), reticulocytes, and blood smear. Serum chemistry parameters measured included albumin (ALB), creatine kinase (CK), albumin/globulin ratio (A\G), globulin (GLOB), alkaline phosphatase (ALP), glucose (GLU), fructosamine, alanine aminotransferase (ALT), blood urea nitrogen (BUN), phosphorus (PHOS), calcium (Ca), potassium (K), chloride (Cl), sodium (Na), cholesterol (CHOL), total protein (TP), creatinine (CRE), total bilirubin (TBIL), BUN/creatinine ratio, and sodium/potassium ratio.
Urine samples were collected via cystocentesis and/or by collection in pans/trays from all cats for urinalysis. Before blood collection, all animals were fasted at least 8 hours. Urinalysis parameters measured included specific gravity (SG), pH (PH), color (COL), clarity (CLAR), blood (BLO), protein (UPRO), bilirubin (UBIL), glucose (UGLU), ketones (KET), and the microscopic examination of the sediments for RBC/hpf, WBC/hpf, bacteria (BACT), epithelial cells, mucus, casts, and crystals.

[3] = Pilot clinical field study in cats with CKD (Example 11); details: for mean bodyweight change (±SEM): 2 mg/kg oral once daily
Protocol: This placebo controlled, masked non-GCP study was to confirm the safety and effectiveness (weight gain) of AT-002 (capromorelin) at a dose of 2 mg/kg administered once daily for 90 days in cats with CKD and a history of losing weight.
A total of 42 cats were screened at 7 veterinary clinics. Of these 42 cats, 1 was a screen failure, resulting in 41 cats being enrolled and randomized to 1 of 2 treatments, capromorelin oral solution (AT-002) or placebo (CP). Eligible study candidates included cats that presented to the veterinary clinic with a diagnosis of CKD (IRIS stages II, III or IV) and a documented decrease in bodyweight over the previous 6 months. Test articles were provided as flavored oral solutions and were administered orally once daily beginning on Day 0 for 90±3 days, AT-002 at a dose rate of 2 mg/kg and CP at the equivalent dose volume to AT-002. The Investigator, study staff and cat Owners were masked to treatment. Cats were re-evaluated at the clinic on Day 14±1, Day 30±2, Day 60±3 and Day 90±3.
The key variable for the determination of effectiveness was bodyweight. Other effectiveness variables measured included body condition score, muscle condition score, quality of life assessments (unvalidated) and owner appetite assessments (unvalidated). Safety was assessed by physical examinations, clinical pathology testing (hematology and serum chemistry), urinalysis, serum IGF-1 levels and adverse event monitoring.

[4] = test system: IGF-1; test: Example 9 field study: IGF-1 serum levels; details: cats with CKD, 2 mg/kg once daily
Protocol: A 1-mL blood sample was collected into a vacutainer tube containing no anticoagulant at the screening/qualification/Day 0, Day 30±2, Day 60±3 and Day 90±3 or at the last study visit (i.e. early removal). Blood samples were kept at room temperature and allowed to clot for about 1 hour. Clotted samples were centrifuged for approximately 15 minutes at 3000 RPM.

[5] = Safety of capromorelin administered daily to Beagle dogs for one year; details: for high dose relative to proposed clinical dose for dogs (safety margin): 52.4 mg/kg vs proposed clinical dose; for high dose relative to proposed clinical dose for dogs (safety margin) / tolerability / toxicity: L-tartrate; for tolerability / toxicity: oral gavage once daily, doses up to 52.4 mg/kg
Protocol: This study evaluated the safety of capromorelin in dogs. Thirty-two Beagle dogs were randomly assigned to four groups (n=4/sex/group) and received 0 mg/kg, 0.39 mg/kg, 9.2 mg/kg, or 52.4 mg/kg capromorelin (with the dose calculated per the tartrate salt) once daily by oral gavage for 12 consecutive months. Safety parameters were evaluated including clinical signs, food consumption, bodyweight, clinical pathology, urinalysis, ophthalmology, electrocardiogram and vital signs. Capromorelin, GH and IGF-1 were measured in plasma samples collected at various time points during the study. At the end of the dosing period, dogs were humanely euthanized and necropsied. Selected organs were weighed and tissue samples collected and processed for microscopic examination.

[6] = 2 mg/kg, 90 days, PPP1, not statistically significant vs placebo

CN1N=C2CCN(C(=O)[C@@H](COCc3ccccc3)NC(=O)C(C)(C)N)C[C@@]2(Cc2ccccc2)C1=O.O=C(O)C(O)C(O)C(=O)O [capromorelin, N-[(2R)-1-[(3aR)-2-methyl-3-oxo-3a-(phenylmethyl)-6,7-dihydro-4H-pyrazolo[4,3-c]pyridin-5-yl]-1-oxo-3-(phenylmethoxy)propan-2-yl]-2-amino-2-methylpropanamide L-tartrate]
IGF-1 following treatment [1]: increased | resolution of post-dose clinical observations ([2]; 6 mg/kg): usually resolved within five minutes | mean rate of bodyweight change ([2]; 6 mg/kg oral once daily, 91 days): 0.0086 | mean bodyweight change from baseline (Day 1) ([2]; 6 mg/kg oral once daily, Day 14): 0.26 kg | mean bodyweight change from baseline (Day 1) ([2]; 6 mg/kg oral once daily, Day 30): 0.46 kg | mean bodyweight change from baseline (Day 1) ([2]; 6 mg/kg oral once daily, Day 59): 0.64 kg | mean bodyweight change from baseline (Day 1) ([2]; 6 mg/kg oral once daily, Day 75): 0.73 kg | mean bodyweight change from baseline (Day 1) ([2]; 6 mg/kg oral once daily, Day 91): 0.80 kg | food consumption, mean change from baseline ([2]; 6 mg/kg oral once daily, baseline average of Days -3 through -1): 14.95 grams | mean rate of bodyweight change, factor vs placebo ([2]; 6 mg/kg, 0.0086 vs 0.0010 for placebo): 8.6 | chronic hyperglycemia ([2]; 6 mg/kg, 91 days): no chronic hyperglycemia | food consumption, mean rate of change ([2]; 6 mg/kg, a rate of one = one more gram of food consumed each day): 1.2396 | creatinine levels ([2]; 6 mg/kg, acclimation to Day 91, reference range 0.6 to 2.4 mg/dL): within the normal reference range | BUN levels ([2]; 6 mg/kg, acclimation to Day 91, reference range 14 to 36 mg/dL): within the normal reference range | serum glucose levels ([2]; 6 mg/kg, compared to the placebo group): increased | serum fructosamine ([2]; 6 mg/kg, reference range 191 to 349 μmol/L): No fructosamine values exceeded the normal reference range | most common clinical observations ([2]; 6 mg/kg, seen immediately post-dose): hypersalivation (ptyalism), lip smacking, emesis, and head shaking | mean body condition score (scale of 1 to 9) [3, 6]: increased slightly | mean muscle condition score (scale of 0 to 3) [3, 6]: increased | % Success, success defined as greater than 0% gain ([3]; 2 mg/kg, Day 14, PPP2): 86.7% | % Success, success defined as maintenance or gain ([3]; 2 mg/kg, Day 14, PPP2): 86.7% | Body weight successes per group, success defined as greater than 0% gain ([3]; 2 mg/kg, Day 14, PPP2): 13/15 | Bodyweight successes per group, success defined as maintenance or gain ([3]; 2 mg/kg, Day 14, PPP2): 13/15 | % Success, success defined as greater than 0% gain ([3]; 2 mg/kg, Day 30, PPP2): 86.7% | % Success, success defined as maintenance or gain ([3]; 2 mg/kg, Day 30, PPP2): 93.3% | Body weight successes per group, success defined as greater than 0% gain ([3]; 2 mg/kg, Day 30, PPP2): 13/15 | Bodyweight successes per group, success defined as maintenance or gain ([3]; 2 mg/kg, Day 30, PPP2): 14/15 | % Success, success defined as greater than 0% gain ([3]; 2 mg/kg, Day 60, PPP2): 66.7% | % Success, success defined as maintenance or gain ([3]; 2 mg/kg, Day 60, PPP2): 80.0% | Body weight successes per group, success defined as greater than 0% gain ([3]; 2 mg/kg, Day 60, PPP2): 10/15 | Bodyweight successes per group, success defined as maintenance or gain ([3]; 2 mg/kg, Day 60, PPP2): 12/15 | change in mean descriptive quality of life monthly score (±SEM) from Day 0 ([3]; 2 mg/kg, Day 90): 0.00±0.11 | % Success, success defined as greater than 0% gain ([3]; 2 mg/kg, Day 90, PPP2): 73.3% | % Success, success defined as maintenance or gain ([3]; 2 mg/kg, Day 90, PPP2): 80.0% | Body weight successes per group, success defined as greater than 0% gain ([3]; 2 mg/kg, Day 90, PPP2): 11/15 | Bodyweight successes per group, success defined as maintenance or gain ([3]; 2 mg/kg, Day 90, PPP2): 12/15 | mean descriptive owner appetite assessment monthly scores ([3]; 2 mg/kg, compared to placebo, Days 30, 60, 90, PPP1): did not change significantly | mean descriptive quality of life monthly score (±SEM), scale of 1 to 5 ([3]; capromorelin group, Day 0 (baseline)): 3.85±0.19 | tolerability ([3]; cats with CKD, 2 mg/kg once daily, 90 days): well-tolerated | mean bodyweight change (±SEM) ([3]; cats with CKD, Day 14, n = 13, PPP1): 2.93% ± 0.70% | mean bodyweight change (±SEM) ([3]; cats with CKD, Day 30, n = 13, PPP1, L-tartrate, 2 mg/kg): 3.86%±0.85% | mean bodyweight change (±SEM) ([3]; cats with CKD, Day 30, n = 13, PPP1, listed as Capromorelin, L-tartrate, 2 mg/kg): 3.86% ± 0.85% | mean bodyweight change (±SEM) ([3]; cats with CKD, Day 60, n = 13, PPP1, L-tartrate, 2 mg/kg): 4.06%±1.42% | mean bodyweight change (±SEM) ([3]; cats with CKD, Day 60, n = 13, PPP1, listed as Capromorelin, L-tartrate, 2 mg/kg): 4.06% ± 1.42% | mean bodyweight change (±SEM) ([3]; cats with CKD, Day 90, n = 13, PPP1, L-tartrate, 2 mg/kg): 3.59%±1.59% | mean bodyweight change (±SEM) ([3]; cats with CKD, Day 90, n = 13, PPP1, listed as Capromorelin, L-tartrate, 2 mg/kg): 3.59% ± 1.59% | IGF-1 serum levels following administration [4]: increase | pressure rate quotient (PRQ) interval, electrocardiogram ([5]; 52.4 mg/kg and 9.2 mg/kg groups, 1 to 2 hours following dosing): slight increases | absolute liver weights ([5]; 52.4 mg/kg dose): Increased | red blood cells, hemoglobin and hematocrit ([5]; 52.4 mg/kg group): slight deceases | cholesterol, HDL and alkaline phosphatase serum levels ([5]; 52.4 mg/kg group compared to placebo): statistically significantly increased | high dose relative to proposed clinical dose for dogs (safety margin) [5]: about 17.5 times | high dose relative to proposed clinical dose for dogs (safety margin) ([5]; listed as Capromorelin): approximately 17.5 times | hepatocellular cytoplasmic vacuolation ([5]; all capromorelin treated groups): slight increase | clinical signs related to capromorelin ([5]; dogs, 12 months, noted sporadically): salivation and loose stool | capromorelin plasma levels: accumulation ([5]; dogs, Days 90, 181 and 349): no accumulation of drug | reddening/swollen paws ([5]; dogs, higher dose treatments): increased incidence | tolerability / toxicity ([5]; dogs, 12 months): well-tolerated; also recorded: favorable toxicology | tolerability / toxicity ([5]; dogs, 12 months, listed as Capromorelin): minimal toxicity | effects on food consumption, bodyweight, ophthalmic exams, vital signs or gross pathology ([5]; dogs, up to 52.4 mg/kg daily, 12 months): no negative effects
